{"source": "patent US20250275953A1", "about": "“VODOBATINIB FOR REDUCING PROGRESSION OF PARKINSON'S DISEASE” (Sun Pharma Advanced Research Company Ltd., priority 2022, published 2025)", "key": {"[1]": {"assay": "CSF pharmacokinetics on Day 7, healthy volunteers", "assay_type": "in vivo, human", "settings": "for CSF AUC0-24 AM / CSF AUC0-24 GM / CSF AUC0-24 Median / CSF Cmax AM / CSF Cmax GM / CSF Cmax Median / Tmax: Day 7, CSF, healthy volunteers; for Cmax, CSF/IC50: IC50 0.9 nM; for Tmax: male, human, CSF, oral", "experimental": "CSF Assessment: On the morning of Day 7, local anesthetic (e.g., lidocaine 2% with epinephrine) was administered subcutaneously at the site of lumbar puncture. An indwelling intrathecal catheter was inserted at the lumbar region (L3-L5) by a trained and experienced anesthesiologist (i.e., using an epidural tray, 17G or 20/22G Tuohy needle and catheter over needle system). A CSF sample was collected for safety labs (i.e., cell count, glucose, protein). Serial CSF samples were then collected through the spinal catheter and tubing connected to a fractional collection system (i.e., peristaltic pump). The CSF samples (8 mL) were collected at a flow rate of 0.5 mL/min over a 16-minute period at pre-dose, and at 0.5 h, 1.0 h, 1.5 h, 2 h, 2.5 h, 3 h, 4 h, 6 h, 8 h, 12 h and 24 h post-dose. The first 2 mL of CSF was discarded, and the 6 mL remainder was used for the PK study.\nThe plasma and CSF samples were analyzed, by validated LC/MS-MS methods. PK analysis was conducted based on PK/PP Population: Cmax, AUC0-t, AUC0-24, AUC0-∞, Tmax, Cavg, CL/F, Cmin, t1/2, Kel, Vd (V/F; Vd/F), and Vss/F. Model-independent plasma PK parameters (Cmax, Tmax, t1/2, AUC0-t, AUC0-24, AUC0-∞, Cavg, CL/F, Vss/F, Vd/F), after the first dose (Day 1) and last dose (Day 7), Cmin on Days 2-7) was listed by subject and summarized by study cohort. In addition to the descriptive statistics listed above, geometric means was reported for the pivotal PK endpoints (CL/F, Vss/F, Vd/F, Cmin, Cavg, AUC0-t, AUC0-24, AUC0-∞, and Cmax). For CSF, PK parameters (Cmax, Tmax, t1/2, AUC0-t, AUC0-24, Cmin, Cavg, CL/F, Vss/F) was listed by subject and summarized by cohort. Ratios of CSF: plasma concentration at each time point was listed by subject and summarized by study cohort.\nForty-one healthy adult male volunteers aged 18 to 45 with body mass indexes (BMI)≥18 to ≤30 Kg/m^2 and total body weight >50 kg (110 lb) were screened in order to enroll 19 subjects with an average age of 34.2 years (range 21.5-45.6 years) into this study Six participants were randomly assigned to the 48 and 192 mg cohorts, and seven participants were assigned to the 384 mg cohort. After an overnight fast, participants received once daily doses of vodobatinib as capsules for 7 days. Serial PK blood samples to measure vodobatinib plasma concentrations were collected at pre-dose and at 0.25, 0.5, 1, 1.5, 2, 2.5, 3, 4, 6, 8, 12, 16 and 24 h post-dose after the first dose on Day 1 and the last dose on day 7. Additional PK samples prior to the morning doses were taken on Days 3-6. On the morning of Day 7, prior to dosing, an indwelling intrathecal catheter was inserted in the lumbar region (L3-L5). Serial CSF samples were collected through the catheter connected via peristaltic pump to a fraction collector. At each designated CSF collection time point, 8 mL of CSF was collected at a flow rate of 0.5 mL/min over a 16-min period at pre-dose, and 0.5, 1.0, 1.5, 2, 2.5, 3, 4, 6, 8, 12 and 24 h post-dose. The first 2 mL of CSF was discarded, and the remaining 6 mL was used for the vodobatinib assay. The occurrence of treatment-emergent adverse events (TEAEs) and serious AEs (SAEs) reported through the completion of study were collected. Clinical laboratory parameters, vital signs and physical examination data and electrocardiogram (ECG) were collected and evaluated relative to baseline values."}, "Abl (M351T)": {"biological_target": "Abl (M351T) (Homo sapiens, UniProt P00519, M351T)", "assay": "Biochemical kinase assay, mutant Abl", "text": "(§1) Conventional biochemical kinase assays, using radioactivity and fluorescence as readouts, were used to derive half maximal-inhibitory concentrations (IC50) values."}, "Abl (E255K)": {"biological_target": "Abl (E255K) (Homo sapiens, UniProt P00519, E255K)", "assay": "Biochemical kinase assay, mutant Abl", "text": "as §1"}, "Abl (Y253F)": {"biological_target": "Abl (Y253F) (Homo sapiens, UniProt P00519, Y253F)", "assay": "Biochemical kinase assay, mutant Abl", "text": "as §1"}, "Abl (Q252H)": {"biological_target": "Abl (Q252H) (Homo sapiens, UniProt P00519, Q252H)", "assay": "Biochemical kinase assay, mutant Abl", "text": "as §1"}, "Abl (H396P)": {"biological_target": "Abl (H396P) (Homo sapiens, UniProt P00519, H396P)", "assay": "Biochemical kinase assay, mutant Abl", "text": "as §1"}, "Abl (F317I)": {"biological_target": "Abl (F317I) (Homo sapiens, UniProt P00519, F317I)", "assay": "Biochemical kinase assay, mutant Abl", "text": "as §1"}, "Abl (F317L)": {"biological_target": "Abl (F317L) (Homo sapiens, UniProt P00519, F317L)", "assay": "Biochemical kinase assay, mutant Abl", "text": "as §1"}, "[2]": {"settings": "48 mg, Day 7, Healthy Volunteers"}, "[3]": {"settings": "192 mg, Day 7, Healthy Volunteers"}, "[4]": {"settings": "384 mg, Day 7, Healthy Volunteers"}}, "note": "pIC50: −log10 of the molar value. Where two headings read alike, the source gives them in different places.", "data": [{"smiles": "Cc1ccc(C(=O)NNC(=O)c2c(C)cccc2Cl)cc1C#Cc1cnc2ccccc2c1", "note": "[N′-(2-chloro-6-methylbenzoyl)-4-methyl-3-[2-(3-quinolyl)ethynyl]-benzohydrazide]", "values": [{"measurement": "CSF AUC0-24", "setting": "[1]; 48 mg, Day 7", "value": 0.0183, "unit": "µM·h"}, {"measurement": "CSF AUC0-24 AM", "setting": "[1]; 48 mg", "value": 10.0, "unit": "ng·h/mL"}, {"measurement": "CSF AUC0-24 GM", "setting": "[1]; 48 mg", "value": 8.9, "unit": "ng·h/mL"}, {"measurement": "CSF AUC0-24 Median", "setting": "[1]; 48 mg", "value": 10.1, "unit": "ng·h/mL"}, {"measurement": "CSF Cmax AM", "setting": "[1]; 48 mg", "value": 0.8, "unit": "ng/mL"}, {"measurement": "CSF Cmax GM", "setting": "[1]; 48 mg", "value": 0.7, "unit": "ng/mL"}, {"measurement": "CSF Cmax Median", "setting": "[1]; 48 mg", "value": 0.8, "unit": "ng/mL"}, {"measurement": "CSF AUC0-24", "setting": "[1]; [2]", "value": 10.0, "unit": "ng·h/mL"}, {"measurement": "Cavg, CSF", "setting": "[1]; [2]", "value": "(0.9 nM)"}, {"measurement": "Cmax, CSF", "setting": "[1]; [2]", "value": "(1.8 nM)"}, {"measurement": "Cmax, CSF", "setting": "[1]; 48 mg, Day 7, Healthy Volunteers, Table 11A", "value": 0.8, "unit": "ng/mL"}, {"measurement": "Cmax, CSF/IC50", "setting": "[1]; [2]", "value": 2.0}, {"measurement": "Cavg, CSF", "setting": "[1]; 48 mg, Day 7, Healthy Volunteers, estimated as AUC(0-24)/24", "value": 0.42, "unit": "ng/mL"}, {"measurement": "CSF concentrations at 2-3 h", "setting": "[1]; 48 mg, healthy subjects", "value": "0.5 to 0.7", "unit": "ng/mL"}, {"measurement": "CSF AUC0-24", "setting": "[1]; 192 mg, Day 7", "value": 0.1304, "unit": "µM·h"}, {"measurement": "CSF AUC0-24 AM", "setting": "[1]; 192 mg", "value": 74.5, "unit": "ng·h/mL"}, {"measurement": "CSF AUC0-24 GM", "setting": "[1]; 192 mg", "value": 59.2, "unit": "ng·h/mL"}, {"measurement": "CSF AUC0-24 Median", "setting": "[1]; 192 mg", "value": 64.5, "unit": "ng·h/mL"}, {"measurement": "CSF Cmax AM", "setting": "[1]; 192 mg", "value": 5.2, "unit": "ng/mL"}, {"measurement": "CSF Cmax GM", "setting": "[1]; 192 mg", "value": 4.6, "unit": "ng/mL"}, {"measurement": "CSF Cmax Median", "setting": "[1]; 192 mg", "value": 5.2, "unit": "ng/mL"}, {"measurement": "CSF AUC0-24", "setting": "[1]; [3]", "value": 74.5, "unit": "ng·h/mL"}, {"measurement": "Cavg, CSF", "setting": "[1]; [3]", "value": "(6.8 nM)"}, {"measurement": "Cmax, CSF", "setting": "[1]; [3]", "value": "(11.5 nM)"}, {"measurement": "Cmax, CSF", "setting": "[1]; 192 mg, Day 7, Healthy Volunteers, Table 11A", "value": 5.2, "unit": "ng/mL"}, {"measurement": "Cmax, CSF/IC50", "setting": "[1]; [3]", "value": 13}, {"measurement": "Cavg, CSF", "setting": "[1]; 192 mg, Day 7, Healthy Volunteers, estimated as AUC(0-24)/24", "value": 3.3, "unit": "ng/mL"}, {"measurement": "CSF AUC0-24", "setting": "[1]; 384 mg, Day 7", "value": 0.1201, "unit": "µM·h"}, {"measurement": "CSF AUC0-24 AM", "setting": "[1]; 384 mg", "value": 58.7, "unit": "ng·h/mL"}, {"measurement": "CSF AUC0-24 GM", "setting": "[1]; 384 mg", "value": 54.5, "unit": "ng·h/mL"}, {"measurement": "CSF AUC0-24 Median", "setting": "[1]; 384 mg", "value": 60.0, "unit": "ng·h/mL"}, {"measurement": "CSF Cmax AM", "setting": "[1]; 384 mg", "value": 5.5, "unit": "ng/mL"}, {"measurement": "CSF Cmax GM", "setting": "[1]; 384 mg", "value": 5.4, "unit": "ng/mL"}, {"measurement": "CSF Cmax Median", "setting": "[1]; 384 mg", "value": 5.1, "unit": "ng/mL"}, {"measurement": "CSF AUC0-24", "setting": "[1]; [4]", "value": 58.7, "unit": "ng·h/mL"}, {"measurement": "Cavg, CSF", "setting": "[1]; [4]", "value": "(5.3 nM)"}, {"measurement": "Cmax, CSF", "setting": "[1]; [4]", "value": "(12.3 nM)"}, {"measurement": "Cmax, CSF", "setting": "[1]; 384 mg, Day 7, Healthy Volunteers, Table 11A", "value": 5.5, "unit": "ng/mL"}, {"measurement": "Cmax, CSF/IC50", "setting": "[1]; [4]", "value": 14}, {"measurement": "Cavg, CSF", "setting": "[1]; 384 mg, Day 7, Healthy Volunteers, estimated as AUC(0-24)/24", "value": 2.4, "unit": "ng/mL"}, {"measurement": "quantifiable CSF concentrations", "setting": "[1]; Day 7, 3 dose cohorts", "value": "observed in all subjects"}, {"measurement": "Tmax", "setting": "[1]; 48 mg, read-out: CSF Tmax Median", "value": 3, "unit": "h"}, {"measurement": "Tmax", "setting": "[1]; 48 mg, read-out: CSF Tmax Min, Max", "value": "3 to 6.02", "unit": "h"}, {"measurement": "Tmax", "setting": "[1]; 192 mg, read-out: CSF Tmax Median", "value": 6, "unit": "h"}, {"measurement": "Tmax", "setting": "[1]; 192 mg, read-out: CSF Tmax Min, Max", "value": "2.03 to 6.01", "unit": "h"}, {"measurement": "Tmax", "setting": "[1]; 384 mg, read-out: CSF Tmax Median", "value": 5, "unit": "h"}, {"measurement": "Tmax", "setting": "[1]; 384 mg, read-out: CSF Tmax Min, Max", "value": "2.5 to 8.01", "unit": "h"}, {"measurement": "ratio of concentration in CSF to IC50 of c-Abl inhibition", "setting": "[1]; therapeutically effective amount", "value": "not less than 1"}, {"measurement": "pIC50", "setting": "Abl (M351T)", "value": 9.10}, {"measurement": "inhibition", "setting": "Abl (E255K)", "value": "potently inhibit"}, {"measurement": "pIC50", "setting": "Abl (Y253F)", "value": 9.00}, {"measurement": "pIC50", "setting": "Abl (Q252H)", "value": 9.10}, {"measurement": "pIC50", "setting": "Abl (H396P)", "value": 9.30}, {"measurement": "inhibition", "setting": "Abl (F317I)", "value": "potently inhibit"}, {"measurement": "inhibition", "setting": "Abl (F317L)", "value": "potently inhibit"}]}]}
